Assay results published in paper PMC3310325 (Bioconjugate Chemistry, 2012).
Where two headings read alike, the source gives them in different places.

Columns and labels:
MMP-2 [1] = molecular target: T1, MMP-2 (Homo sapiens, UniProt P08253); details: cited from earlier work
T1 sequence (P08253 110-660): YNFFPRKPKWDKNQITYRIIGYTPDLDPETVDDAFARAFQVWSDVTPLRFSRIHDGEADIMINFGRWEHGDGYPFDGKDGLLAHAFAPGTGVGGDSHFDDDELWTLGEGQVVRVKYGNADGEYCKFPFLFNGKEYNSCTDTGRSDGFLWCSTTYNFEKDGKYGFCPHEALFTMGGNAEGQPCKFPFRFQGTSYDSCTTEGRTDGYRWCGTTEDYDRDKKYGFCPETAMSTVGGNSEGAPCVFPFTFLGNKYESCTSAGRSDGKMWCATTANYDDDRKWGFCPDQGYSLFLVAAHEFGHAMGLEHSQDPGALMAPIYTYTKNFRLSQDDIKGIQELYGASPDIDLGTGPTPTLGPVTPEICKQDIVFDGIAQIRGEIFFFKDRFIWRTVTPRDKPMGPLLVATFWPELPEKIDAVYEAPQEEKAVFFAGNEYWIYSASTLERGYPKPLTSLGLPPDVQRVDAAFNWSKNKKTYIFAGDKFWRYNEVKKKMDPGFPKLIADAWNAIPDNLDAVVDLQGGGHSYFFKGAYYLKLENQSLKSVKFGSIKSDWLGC

MMP-9 = details: single-stranded peptide without the GPO triplets; cited from earlier work
[2] = tested on: HT1080 human fibrosarcoma xenografts; assay: In vivo planar fluorescence imaging in HT1080 tumor-bearing mice; parameters: species or system human xenograft in male NCR nude mice
[3] = previously determined; cited from earlier work
MMP-7 [4] = details: cited from earlier work
MMP-2 [5] = details: 450 kDa co-polymer conjugated to -Pro-Leu-Gly~Val-Arg-Gly-; cited from earlier work
MMP-2 [6] = molecular target: T1, MMP-2; details: cited from earlier work; remark: listed apart in the source
MMP-3 = details: -PLGVR- sequence; cited from earlier work
MMP-1 = details: -PLGVR- sequence; cited from earlier work
MMP-7 [7] = details: -PLGVR- sequence; cited from earlier work
gelatinases = details: -PLGVR- sequence; cited from earlier work

GPPG~VVGEKGEQ
hydrolysis by MMP-2 (MMP-2 [1]; single-stranded peptide without the GPO triplets): hydrolyzed extremely slowly
hydrolysis by MMP-9 (MMP-9): hydrolyzed extremely slowly

CNC(=O)[C@H](Cc1c[nH]c2ccccc12)NC(=O)[C@@H](CC(=O)NO)CC(C)C [Ilomastat]
time course of tumor fluorescence intensity with inhibitor ([2]; mice treated with Ilomastat 1 mg/kg i.p., LS276-THP i.p.): a steady increase in fluorescence intensity occurred, indicating incomplete inhibition of tumor-associated MMP-2/MMP-9 activity

[(GPO)5GPK((7-methoxycoumarin-4-yl)acetyl)GPPG~VVGEK(2,4-dinitrophenyl)GEQ(GPO)5]3 [fluorogenic THP]
Km (MMP-2 [1]; MMP-2 hydrolysis): 4.4 µM
kcat (MMP-2 [1]; MMP-2 hydrolysis): 0.062 s⁻¹
kcat/KM (MMP-2 [1]; MMP-2 hydrolysis): 14,000 s^−1M^−1
midpoint transition temperature TM [3]: 45 °C

GVPLSLTMGC
level of quenching (MMP-7 [4]; heterologous donor and acceptor pair of near infrared dyes on the N- and C-terminus): 85%
fluorescence increase after digestion with MMP-7 (MMP-7 [4]; heterologous donor/acceptor NIR dyes on N- and C-terminus): ~7 fold

-Pro-Leu-Gly~Val-Arg-Gly- [poly-lysine-PEG co-polymer]
in vivo visualization of MMP-2 activity (MMP-2 [5]): MMP-2 activity in mouse models was visualized

-Pro-Leu-Gly~Val-Arg-Gly-
Km (MMP-2 [6]): 290 µM
kcat (MMP-2 [6]): 4.1 s⁻¹
kcat/KM (MMP-2 [6]): 14000 M⁻¹ s⁻¹

-PLGVR- [MMPSense™ 680]
proteolysis by MMP-3 (MMP-3): subject to proteolysis
tumor contrast versus contralateral thigh ([2]; 24 h post-injection, MMPSense 680 2 nmol i.v., n=3): about two-fold
tumor-specific fluorescence enhancement relative to LS276-THP ([2]; MMPSense 680 2 nmol i.v. vs LS276-THP i.p.): slightly higher
tumor-specific fluorescence contrast over time ([2]; MMPSense 680 2 nmol i.v., n=3, 24 h): increased over time for 24 h
proteolysis by MMP-1 (MMP-1): subject to proteolysis
proteolysis by MMP-7 (MMP-7 [7]): subject to proteolysis
proteolysis by gelatinases (gelatinases): subject to proteolysis
